{"source": "patent US20130079370A1", "about": "“Method for the Inhibition of Deubiquitinating Activity” (priority 2011, published 2013)", "key": {"MCF7 cells": {"tested_on": "MCF7 cells", "assay": "Microarray based gene expression analysis, chaperone genes", "assay_type": "cell-based", "parameters": "key to Expression value HSPA4L / Expression value DNAJB1 / Expression value HSPD1 / Expression value DNAJB4 / Expression value HSPA1B / Expression value HSPH1 / Expression value HSPA4 / Expression value DNAJB9 / Expression value DNAJA1 / Expression value HSPA1A / Expression value HSPA6 / Expression value DNAJA4: MAS5-normalized array expression, arbitrary units", "procedure": "The microarray based gene expression analysis and the Connectivity Map (CMAP) analysis was performed as previously described (40). Briefly, MCF7 cells were exposed to b-AP15 (1 μM, 6 h) or vehicle (0.1% DMSO, 6 h). RNA was isolated (RNeasy miniprep kit, Qiagen) followed by quality control, labelling and hybridization to Genome U133 Plus 2.0 arrays (Affymetrix Inc). Raw data was normalized using MasS (Affymetrix Inc.) and rank ordered. For selection of the 30 most induced (up tags) and the 30 most suppressed (down tags) transcripts the following criteria were used: Up tags, present call and expression over 300 arbitrary in the b-AP15 experiment; Down tags, present call after both b-AP15 and vehicle treatment, and expression over 300 arbitrary units in the vehicle experiment. For CMAP compatibility only tags (i.e. probes) present on HG U133A were used. Raw and normalized expression data have been deposited at Gene Expression Omnibus (http://www.ncbi.nlm. nih.gov/geo/) with accession number GSE24150.\nExpression of chaperone genes observed in bAP15-treated cells (Table 1) is indicative of induction of a proteotoxic response."}, "human 19S RP": {"target": "T1, human 19S RP (Homo sapiens, UniProt P54578+Q9Y5K5)", "T1 construct": "purchased Boston Biochem E-366", "assay": "De-ubiquitinase activity assay, Ub-AMC cleavage by 19S RP", "assay_type": "biochemical", "conditions": "read-out: IC50, DUB activity by detection of Ub-AMC cleavage"}, "HCT-116 cells": {"tested_on": "HCT-116 cells", "assay": "DNA damage markers, immunoblot", "assay_type": "cell-based", "conditions": "cell cycle arrest observed", "procedure": "Treatment with b-AP15 increased their levels in a dose dependent manner without altering the levels of ornithine decarboxylase 1 (ODC1), an ubiquitin-independent proteasome substrate (8).\nHCT-116 cells were treated with b-AP15 or doxorubicin (100 nM, as a positive control for genotoxic stress for 18 h) (FIG. 5). Cell lysates were immuno-blotted with antibodies for phosphorylated p53 and histone H2 Ax marker for DNA damage of for total levels of p53 and β-actin as loading controls."}, "[1]": {"tested_on": "proteasome reporter cell line MelJuSo Ub-YFP (UbG76V-YFP)", "assay": "Ub-YFP proteasome reporter cell line, accumulation of reporter", "assay_type": "cell-based", "conditions": "Homo sapiens, MEL-JUSO; immunoblotting and flow cytometry; read-out: IC50, dose dependent accumulation of the Ub-YFP reporter", "procedure": "b-AP15 blocks cellular proteasome function, as confirmed by use of a reporter cell line, which expresses ubiquitin tagged to yellow fluorescent protein (UbG76V-YFP) constitutively targeted for proteasomal degradation (12). […] Since inhibition of proteasome function is characterized by defects in ubiquitin turnover (13) colon carcinoma HCT116 cells were treated with b-AP15 and the level of ubiqutin conjugation analyzed by immunoblotting. […] The increase in polyubiquitin is associated with a strong proteotoxic response characterized by induction of HSPA6 (Hsp70B′), HSPA1B and DNAJB1 (Hsp40).\nMCF7 cells were maintained in MEM/10% fetal calf serum. HCT-116 p53+/+, p53−/−, Bcl-2+/+, PUMA−/− and BAX−/− cells were maintained in McCoy's 5A modified medium/10% fetal calf serum. The HCT-116 p53+/+, p53−/−, PUMA−/− and BAX−/− were generated as described (36). The HCT-116 Bcl-2+/+ cell line was generated by transfecting parental HCT-116 p53+/+ cells with pCEP4 Bcl-2 (Addgene plasmid 16461) (37) and isolating high expression clones. […]\nb-AP15 inhibits degradation of ubiquitin-tagged YFP in a proteasome reporter cell line (FIG. 1a). Levels of ^UbG76V-YFP accumulation were determined by flow cytometry and immunoblotting; immunoblot of ubiquitin conjugation in HCT-116 cells treated with b-AP15 (1 μM) or bortezomib (100 nM) (FIG. 1b). […]"}, "[2]": {"tested_on": "Lewis Lung Carcinoma (LLC) tumors", "assay": "Syngenic lung carcinoma (LLC) model", "assay_type": "in vivo, C57BL/6J mice", "conditions": "5 mg/kg i.p."}}}
{"compound": "C=CC(=O)N1C/C(=C\\c2ccc([N+](=O)[O-])cc2)C(=O)/C(=C/c2ccc([N+](=O)[O-])cc2)C1", "note": "[b-AP15, (3E,5E)-3,5-bis[(4-nitrophenyl)methylidene]-1-(prop-2-enoyl)piperidin-4-one]", "values": [{"measurement": "Expression value HSPA6", "setting": "MCF7 cells; probe set 117_at, MCF7 cells, 1 μM, 6 h", "value": 24149}, {"measurement": "Expression value DNAJB1", "setting": "MCF7 cells; probe set 200666_s_at, MCF7 cells, 1 μM, 6 h", "value": 33900}, {"measurement": "Fold change DNAJB1", "setting": "MCF7 cells; probe set 200666_s_at, b-AP15 vs vehicle", "value": 6}, {"measurement": "Expression value HSPA1A", "setting": "MCF7 cells; probe set 200800_s_at, MCF7 cells, 1 μM, 6 h", "value": 57478}, {"measurement": "Fold change HSPA1A", "setting": "MCF7 cells; probe set 200800_s_at, b-AP15 vs vehicle", "value": 4}, {"measurement": "Expression value DNAJA1", "setting": "MCF7 cells; probe set 200880_at, MCF7 cells, 1 μM, 6 h", "value": 19970}, {"measurement": "Fold change DNAJA1", "setting": "MCF7 cells; probe set 200880_at, b-AP15 vs vehicle", "value": 4}, {"measurement": "Expression value HSPA1B", "setting": "MCF7 cells; probe set 202581_at, MCF7 cells, 1 μM, 6 h", "value": 31068}, {"measurement": "Fold change HSPA1B", "setting": "MCF7 cells; probe set 202581_at, b-AP15 vs vehicle", "value": 5}, {"measurement": "Expression value DNAJB9", "setting": "MCF7 cells; probe set 202843_at, MCF7 cells, 1 μM, 6 h", "value": 1879}, {"measurement": "Fold change DNAJB9", "setting": "MCF7 cells; probe set 202843_at, b-AP15 vs vehicle", "value": 4}, {"measurement": "Expression value DNAJB4", "setting": "MCF7 cells; probe set 203810_at, MCF7 cells, 1 μM, 6 h", "value": 1955}, {"measurement": "Expression value DNAJB4", "setting": "MCF7 cells; probe set 203811_s_at, MCF7 cells, 1 μM, 6 h", "value": 960}, {"measurement": "Fold change DNAJB4", "setting": "MCF7 cells; probe set 203811_s_at, b-AP15 vs vehicle", "value": 5}, {"measurement": "Expression value HSPA4L", "setting": "MCF7 cells; probe set 205543_at, MCF7 cells, 1 μM, 6 h", "value": 5452}, {"measurement": "Expression value HSPH1", "setting": "MCF7 cells; probe set 206976_s_at, MCF7 cells, 1 μM, 6 h", "value": 40974}, {"measurement": "Fold change HSPH1", "setting": "MCF7 cells; probe set 206976_s_at, b-AP15 vs vehicle", "value": 5}, {"measurement": "Expression value HSPA4", "setting": "MCF7 cells; probe set 211016_x_at, MCF7 cells, 1 μM, 6 h", "value": 1803}, {"measurement": "Fold change HSPA4", "setting": "MCF7 cells; probe set 211016_x_at, b-AP15 vs vehicle", "value": 4}, {"measurement": "Expression value DNAJA4", "setting": "MCF7 cells; probe set 225061_at, MCF7 cells, 1 μM, 6 h", "value": 21103}, {"measurement": "Fold change DNAJA4", "setting": "MCF7 cells; probe set 225061_at, b-AP15 vs vehicle", "value": 30}, {"measurement": "Expression value HSPD1", "setting": "MCF7 cells; probe set 241716_at, MCF7 cells, 1 μM, 6 h", "value": 487}, {"measurement": "Fold change HSPD1", "setting": "MCF7 cells; probe set 241716_at, b-AP15 vs vehicle", "value": 6}, {"measurement": "IC50", "setting": "human 19S RP", "value": "2.1 ± 0.411", "unit": "µM"}, {"measurement": "DNA damage markers phosphorylated p53 (Ser 15), H2AX (Ser 139)", "setting": "HCT-116 cells", "value": "not associated with increased levels of DNA damage markers"}, {"measurement": "IC50", "setting": "[1]", "value": 0.8, "unit": "µM"}, {"measurement": "difference in weight at the start and the endpoint between control and treated animals", "setting": "[2]", "value": "+2.1%"}]}
